{
  "source": "paper PMC8027256",
  "about": "“Epigallocathechin-O-3-Gallate Inhibits Trypanothione Reductase of Leishmania infantum, Causing Alterations in Redox Balance and Leading to Parasite Death” (Frontiers in Cellular and Infection Microbiology, 2021)",
  "target": "T1, trypanothione reductase (TR; LiTR) (Leishmania infantum, UniProt A4HSF7)",
  "T1 construct": "gene TRYR; Full-length LiTR with carboxy-terminal six-histidine tag (LiTR.6His), expressed in E. coli",
  "T1 sequence (A4HSF7 1-491)": "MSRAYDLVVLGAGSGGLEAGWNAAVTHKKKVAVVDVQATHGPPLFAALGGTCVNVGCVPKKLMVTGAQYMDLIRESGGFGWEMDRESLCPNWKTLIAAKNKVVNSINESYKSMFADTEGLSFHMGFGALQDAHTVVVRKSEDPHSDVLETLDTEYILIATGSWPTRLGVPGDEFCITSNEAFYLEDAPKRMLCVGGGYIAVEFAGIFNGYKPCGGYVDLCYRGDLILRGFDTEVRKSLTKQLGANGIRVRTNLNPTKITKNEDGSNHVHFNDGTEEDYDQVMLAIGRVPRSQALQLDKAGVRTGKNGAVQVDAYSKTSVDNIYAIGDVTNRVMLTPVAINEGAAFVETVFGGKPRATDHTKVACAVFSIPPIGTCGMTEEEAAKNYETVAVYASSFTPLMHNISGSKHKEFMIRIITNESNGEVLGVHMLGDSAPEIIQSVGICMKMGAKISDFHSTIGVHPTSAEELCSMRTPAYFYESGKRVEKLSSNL",
  "assay": "DTNB-coupled trypanothione reductase assay with purified recombinant enzyme; Lineweaver-Burk and Dixon plot analysis (IC50 […] also reported)",
  "assay_type": "biochemical",
  "data": [
    {"compound": "O=C(O[C@@H]1Cc2c(O)cc(O)cc2O[C@@H]1c1cc(O)c(O)c(O)c1)c1cc(O)c(O)c(O)c1", "note": "[(-)-Epigallocatechin 3-O-gallate]", "values": [
      {"measurement": "Ki", "value": "294 ± 66.3", "unit": "µM"}
    ]}
  ]
}
